From the NIST ThermoML archive (doi:10.1016/j.jct.2012.08.021)

Experiment: xn = mol fraction of the nth substance listed
Conditions: 101 kPa, Liquid, Vibrating tube method

NCCO [2-aminoethan-1-ol] + C[S+](C)[O-]
Conditions	mass density [kg/m3]
293.15 K, x1 = 0.1002	1092.35
293.15 K, x1 = 0.2	1084.23
293.15 K, x1 = 0.2999	1076.52
293.15 K, x1 = 0.4002	1068.58
293.15 K, x1 = 0.5002	1060.65
293.15 K, x1 = 0.5999	1052.61
293.15 K, x1 = 0.7002	1044.32
293.15 K, x1 = 0.8001	1035.24
293.15 K, x1 = 0.8998	1026.1
293.16 K, x1 = 1	1016.34
303.14 K, x1 = 0.2999	1066.93
303.14 K, x1 = 1	1008.4
303.15 K, x1 = 0.1002	1082.48
303.15 K, x1 = 0.4002	1059.15
303.15 K, x1 = 0.5002	1051.41
303.15 K, x1 = 0.5999	1043.58
303.15 K, x1 = 0.7002	1035.51
303.15 K, x1 = 0.8001	1026.69
303.15 K, x1 = 0.8998	1017.83
303.16 K, x1 = 0.2	1074.46
313.14 K, x1 = 0.1002	1072.61
313.14 K, x1 = 0.2999	1057.33
313.14 K, x1 = 1	1000.41
313.15 K, x1 = 0.2	1064.73
313.15 K, x1 = 0.4002	1049.71
313.15 K, x1 = 0.5002	1042.15
313.15 K, x1 = 0.5999	1034.52
313.15 K, x1 = 0.7002	1026.7
313.15 K, x1 = 0.8001	1018.12
313.15 K, x1 = 0.8998	1009.56
323.14 K, x1 = 0.1002	1062.74
323.15 K, x1 = 0.2999	1047.72
323.15 K, x1 = 0.4002	1040.26
323.15 K, x1 = 0.5002	1032.85
323.15 K, x1 = 0.5999	1025.42
323.15 K, x1 = 0.7002	1017.83
323.15 K, x1 = 0.8001	1009.5
323.15 K, x1 = 0.8998	1001.23
323.15 K, x1 = 1	992.384
323.16 K, x1 = 0.2	1054.96
333.14 K, x1 = 0.2999	1038.11
333.14 K, x1 = 1	984.302
333.15 K, x1 = 0.1002	1052.86
333.15 K, x1 = 0.4002	1030.78
333.15 K, x1 = 0.5002	1023.56
333.15 K, x1 = 0.7002	1008.93
333.15 K, x1 = 0.8001	1000.84
333.15 K, x1 = 0.8998	992.847
333.16 K, x1 = 0.2	1045.22
333.16 K, x1 = 0.5999	1016.3
343.14 K, x1 = 1	976.141
343.15 K, x1 = 0.1002	1042.97
343.15 K, x1 = 0.2	1035.46
343.15 K, x1 = 0.2999	1028.47
343.15 K, x1 = 0.4002	1021.28
343.15 K, x1 = 0.5002	1014.22
343.15 K, x1 = 0.5999	1007.15
343.15 K, x1 = 0.7002	999.999
343.15 K, x1 = 0.8001	992.114
343.15 K, x1 = 0.8998	984.393
353.14 K, x1 = 0.1002	1033.05
353.14 K, x1 = 0.2999	1018.81
353.14 K, x1 = 0.4002	1011.75
353.14 K, x1 = 0.5002	1004.84
353.14 K, x1 = 0.7002	990.992
353.14 K, x1 = 0.8001	983.32
353.14 K, x1 = 0.8998	975.863
353.14 K, x1 = 1	967.893
353.15 K, x1 = 0.2	1025.66
353.15 K, x1 = 0.5999	997.944
363.14 K, x1 = 0.1002	1023.1
363.14 K, x1 = 0.2	1015.84
363.14 K, x1 = 0.5002	995.408
363.14 K, x1 = 0.5999	988.672
363.14 K, x1 = 0.7002	981.91
363.14 K, x1 = 0.8001	974.446
363.14 K, x1 = 0.8998	967.234
363.15 K, x1 = 0.2999	1009.1
363.15 K, x1 = 0.4002	1002.17
363.15 K, x1 = 1	959.536
